{"source": "patent US8779779B2", "about": "“On-chip cell migration detection” (CapitalBio Corporation, priority 2008, dated 2014)", "tested_on": "Vero-E6 cells", "test": "Real time inhibition assay of cell migration (on-chip SAM wound edge with cellular impedance sensing)", "format": "cell-based", "procedure": "For at least one of the electrodes, the surface is treated with a chemical coating that inhibits cell adhesion onto the electrode (302). This generates a chemical coat-modified surface on the electrodes. The chemical coating maintains contact with the surface of the electrodes until desorbed by application of an electrical signal capable of desorbing the coating. The chemical coating can be applied by contacting the electrodes with a solution or suspension of coating material in a carrier, or by contacting the electrode with the coating material without a carrier. A background impedance value is measured in absence of cells (304). After measuring the background impedance (Z0), target cells are added to the device (306). A layer of cells is allowed to grow on the surface of the device (308). […] As a result, all the cells grow on the surface of the SiO2 insulation substrate forming a cell monolayer. After incubation, wound edges are formed automatically on the device. Once the cells have grown over the surfaces, an electrical signal is applied to the electrodes, which causes the chemical coating to desorb from the electrodes (310). This provides a cell-free electrode surface surrounded by cells growing on the adjacent insulation. The cell impedance (Zx) is monitored in real-time as the cells grow or migrate across the electrodes (312). Cells growing on the electrodes can cause measurable changes in the electrical properties of the circuit, e.g., impedance; consequently, the rate of cell migration or spreading can be monitored by monitoring electrical properties of the electrodes. The final impedance data is normalized as Zx/Z0 (314). The normalized impedance data reflects the impedance variation induced by the attachment of the cells.\nFor illustrative purposes, the process 300 is described using an example protocol for monitoring cell migration. An example protocol includes preparing an impedance measuring device (e.g., device 100) for impedance measurement by sterilizing the device. After sterilization, (e.g., in 75% ethanol for 20 minutes and then exposure to UV irradiation for another 30 minutes), a thiol compound is added to the microfluidic cavities. Thiol compound (HS(CH2)11(OCH2CH2)6OH (abbreviated as “EG6”) is obtained from Sigma-Aldrich (St. Louis, Mo.). EG6 (1.5 mM in ethanol) can be added to each microfluidic cavity of the device using a syringe and incubated for 8 hours at room temperature. Then, the microfluidic cavities are washed by ethanol followed by PBS buffer. Before cell seeding, tissue culture media is injected into chambers of the device to read the background impedance value (Z0). […]\nAt the same time, the impedance (Zx) is measured in real-time with a time resolution of 5 minutes, for example. […]"}
{"smiles": "COc1cc2c(c(OC)c1OC)-c1ccc(OC)c(=O)cc1[C@@H](NC(C)=O)CC2", "note": "[colchicine]", "values": [{"measurement": "time point at which the cells heal a wound (t0.1; impedance saturation)", "setting": "0.1 μM colchicine, Vero-E6 cells, control tc=4.2±0.17 h", "value": "4.6 ± 0.19", "unit": "h"}, {"measurement": "time point at which the cells heal a wound (t0.2; impedance saturation)", "setting": "0.2 μM colchicine, Vero-E6 cells, control tc=4.2±0.17 h", "value": "5.1 ± 0.21", "unit": "h"}, {"measurement": "time point at which the cells heal a wound (t0.4; impedance saturation)", "setting": "0.4 μM colchicine, Vero-E6 cells, control tc=4.2±0.17 h", "value": "8.2 ± 0.42", "unit": "h"}, {"measurement": "inhibition effect on Vero-E6 cell migration (average speed AS)", "setting": "0.1, 0.2 and 0.4 μM, AS=R×t^−1, FIG. 7B", "value": "inhibits Vero-E6 cell migration in a drug concentration dependant manner"}]}
